Data on two molecules can be found in patent publication US20230265151A1, “GIP/GLP1 CO-AGONIST COMPOUNDS” (priority 2020, published 2023).

Structures are written as SMILES. Where two headings read alike, the source gives them in different places.

In one assay the target is T1, hGIPR (Homo sapiens, UniProt P48546).
T1 construct: expressed in transfected cells
T1 sequence (P48546 22-466): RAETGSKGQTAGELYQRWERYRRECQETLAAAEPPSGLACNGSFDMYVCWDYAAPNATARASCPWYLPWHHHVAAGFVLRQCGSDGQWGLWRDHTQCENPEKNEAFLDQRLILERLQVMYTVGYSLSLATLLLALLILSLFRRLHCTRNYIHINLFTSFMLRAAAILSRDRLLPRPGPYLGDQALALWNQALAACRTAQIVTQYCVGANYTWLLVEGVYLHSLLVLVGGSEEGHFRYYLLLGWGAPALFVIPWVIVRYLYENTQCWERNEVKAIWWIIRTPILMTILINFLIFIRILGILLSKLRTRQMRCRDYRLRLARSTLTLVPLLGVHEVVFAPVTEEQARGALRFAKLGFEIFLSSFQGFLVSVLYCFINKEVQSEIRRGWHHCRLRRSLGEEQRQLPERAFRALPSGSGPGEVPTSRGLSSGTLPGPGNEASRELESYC
Nature of the assay: Functional cAMP formation (HTRF) in HEK-293 clonal cells expressing hGIPR, 0.1% bovine casein, without or with 1.0% human serum albumin. In kind it is cell-based. The settings on record: for Emax: read-out: hGIPR Emax, % ± SEM; for EC50: geometric mean, read-out: hGIPR EC50, nM (SEM, n). In outline:
(§1)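 Cells were stimulated with peptide for 30 min at 37° C, then intracellular cAMP was measured by competitive HTRF (665/620 nm ratio) and converted to nM using a cAMP standard curve. Relative EC50 and Emax came from four-parameter logistic fits of percent maximal response against peptide concentration.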
(cAMP levels reflect the balance of adenylyl cyclase and phosphodiesterase activity.)

In a further assay the target is T2, hGCGR (Homo sapiens, UniProt P47871).
T2 construct: expressed in transfected cells
T2 sequence (P47871 26-477): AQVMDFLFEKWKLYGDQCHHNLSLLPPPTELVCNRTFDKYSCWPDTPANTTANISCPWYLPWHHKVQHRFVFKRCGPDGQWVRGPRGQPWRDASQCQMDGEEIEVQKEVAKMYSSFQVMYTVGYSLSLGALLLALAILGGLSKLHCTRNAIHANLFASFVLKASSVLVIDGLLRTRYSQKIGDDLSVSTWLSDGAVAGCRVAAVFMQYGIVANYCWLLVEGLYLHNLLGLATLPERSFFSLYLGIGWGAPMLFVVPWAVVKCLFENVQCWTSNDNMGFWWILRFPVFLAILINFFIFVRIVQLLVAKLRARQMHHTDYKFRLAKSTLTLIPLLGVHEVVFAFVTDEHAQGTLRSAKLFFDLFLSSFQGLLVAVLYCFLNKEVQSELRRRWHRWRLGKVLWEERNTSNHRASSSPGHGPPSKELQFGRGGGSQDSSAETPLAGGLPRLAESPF
The assay is described as follows: Functional cAMP formation (HTRF) in HEK-293 clonal cells expressing hGCGR, 0.1% bovine casein, without or with 1.0% human serum albumin. In kind it is cell-based. To be noted: geometric mean, read-out: hGCGR EC50, nM (SEM, n). In outline: as §1

The target of the next assay is hGLP-1R (Homo sapiens, UniProt P43220). The assay is described as follows: Functional cAMP formation (HTRF) in HEK-293 clonal cells expressing hGLP-1R, 0.1% bovine casein, without or with 1.0% human serum albumin. The class given is cell-based. More on the design: expressed in transfected cells. The settings on record: for Emax: 37° C., read-out: hGLP-1R Emax, % ± SEM. A digest of the protocol: as §1
Sequence of hGLP-1R (P43220 24-463): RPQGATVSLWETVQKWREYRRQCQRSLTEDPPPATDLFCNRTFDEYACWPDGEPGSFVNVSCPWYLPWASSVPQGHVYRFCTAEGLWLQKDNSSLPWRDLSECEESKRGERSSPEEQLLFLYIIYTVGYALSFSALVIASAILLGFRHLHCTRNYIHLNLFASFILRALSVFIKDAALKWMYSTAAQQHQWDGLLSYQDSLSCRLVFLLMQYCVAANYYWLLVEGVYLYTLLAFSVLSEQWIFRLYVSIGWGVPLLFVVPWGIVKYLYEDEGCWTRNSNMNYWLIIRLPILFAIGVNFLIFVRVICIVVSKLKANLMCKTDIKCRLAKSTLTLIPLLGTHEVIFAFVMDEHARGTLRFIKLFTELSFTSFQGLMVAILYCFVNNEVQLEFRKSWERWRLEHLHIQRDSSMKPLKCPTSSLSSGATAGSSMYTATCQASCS

In assay [1] the target is T3, human Gcg receptor (hGcgR) (Homo sapiens, UniProt P47871).
T3 construct: expressed in transfected cells; crude membranes
T3 sequence (P47871 26-477): as the sequence (P47871 26-477) above
The assay is described as follows: [125I]-Glucagon binding, SPA with membranes of HEK293 cells expressing hGcgR. To be noted: human GcgR; geometric mean (SEM, n); read-out: Binding Affinity Ki, nM (SEM, n) hGCGR. How it is done: Two methods are used for the preparation of crude cell membranes.
Method 1: Frozen cell pellets are lysed on ice in hypotonic buffer containing 50 mM Tris HCl, pH 7.5, and Roche Complete™ Protease Inhibitors with EDTA. […] The homogenate is centrifuged at 4° C. at 1100 × g for 10 minutes. The supernatant is collected and stored on ice while the pellets are resuspended in homogenization buffer and rehomogenized as described above. The homogenate is centrifuged at 1100 × g for 10 minutes. The second supernatant is combined with the first supernatant and centrifuged at 35000 × g for 1 hour at 4° C. The resulting membrane pellet is resuspended in homogenization buffer containing protease inhibitors at approximately 1 to 3 mg/mL, quick frozen in liquid nitrogen and stored as aliquots in a -80° C. freezer until use.
The homogenate is centrifuged at 4° C. at 1800 × g for 15 minutes. The supernatant is collected and stored on ice while the pellets are resuspended in homogenization buffer (without DNAse I) and rehomogenized as described above. The homogenate is centrifuged at 1800 × g for 15 minutes. The second supernatant is combined with the first supernatant and centrifuged an additional time at 1800 × g for 15 minutes. The overall supernatant is then centrifuged at 25000 × g for 30 minutes at 4° C. The resulting membrane pellet is resuspended in homogenization buffer (without DNAse I) containing protease inhibitors at approximately 1 to 3 mg/mL and stored as aliquots in a -80° C. freezer until use.
The human Gcg receptor binding assays are performed using a Scintillation Proximity Assay (SPA) format with wheat germ agglutinin (WGA) beads (Perkin Elmer). The binding buffer contains 25 mM 4-(2-hydroxyethyl)-1-piperazineethanesulfonic acid (HEPES), pH 7.4, 2.5 mM CaCl2, 1 mM MgCh, 0.1% (w/v) bacitracin (Research Products), 0.003% (w/v) Polyoxyethylenesorbitan monolaurate (TWEEN®-20), and Roche Complete™ Protease Inhibitors without EDTA. […] Next, 5 µL serially diluted compound or DMSO is transferred into Corning® 3632 clear bottom assay plates containing 45 µL assay binding buffer or unlabeled Gcg control (non-specific binding or NSB, at 1 µM final). […] Plates are sealed and mixed on a plate shaker (setting 6) for 1 minute and read with a PerkinElmer Trilux MicroBeta® scintillation counter after 12 hours of incubation/settling time at room temperature.
Raw CPM data for concentration curves of peptides, Gcg, GLP-1, or GIP are converted to percent inhibition by subtracting nonspecific binding (binding in the presence of excess unlabeled Gcg, GLP-1, or GIP, respectively) from the individual CPM values and dividing by the total binding signal, also corrected by subtracting nonspecific binding. Data are analyzed using four-parameter (curve maximum, curve minimum, IC50, Hill slope) nonlinear regression routines (Genedata Screener, version 12.0.4, Genedata AG, Basal, Switzerland). […] Values for Ki are reported as the geometric mean, with error expressed as the standard error of the mean (SEM) and n is equal to the number of independent replicates (determined in assays performed on different days). Geometric Means are calculated as follows: […]
The Ki Ratio (Ki for native control peptide/Ki for test compound) at each receptor and each species is calculated. The Ki Ratio is a rapid indication of the apparent affinity of a peptide compared to the native control peptide.
n=⅟x means that only one value out of the total number of replicates (x) is used to express the mean. SEM is only calculated when n=2 or greater non-qualified results exist. Means are expressed as GeoMetric means with the standard error of the mean (SEM) and the number of replicates (n) indicated in parenthesis.

[2] abbreviates: HEK293, 0.1% bovine casein and 1.0% human serum albumin, 37° C., percent of maximal response to GIP(1-42)NH2.
Setting [3] is: HEK293, percent of maximal response to GIP(1-42)NH2, 37° C., 0.1% bovine casein, arithmetic mean.
Where [4] appears, read: cAMP, incubated at 37° C., 0.1% bovine casein (no human serum albumin).
Where [5] appears, read: 0.1% bovine casein and 1.0% human serum albumin, 37° C.

As for `CC[C@H](C)[C@H](NC(=O)[C@H](CC(C)C)NC(=O)[C@](C)(Cc1ccc(O)cc1)NC(=O)[C@@H](CCC(=O)O)NC(=O)[C@@H](NC(=O)[C@H](Cc1cccc(Cl)c1)NC(=O)[C@H](CCC(=O)O)NC(=O)C(C)(C)NC(=O)[C@H](CCC(N)=O)NC(=O)[C@H](C)NC(=O)[C@H](CCCCNC(=O)COCCOCCNC(=O)COCCOCCNC(=O)CC[C@H](NC(=O)CCCCCCCCCCCCC(=O)O)C(=O)O)NC(=O)[C@H](CCCN)NC(=O)[C@H](CC(=O)O)NC(=O)[C@H](CC(C)C)NC(=O)[C@](C)(CC(C)C)NC(=O)[C@@H](NC(=O)[C@H](CO)NC(=O)[C@H](Cc1ccncc1)NC(=O)[C@H](CC(=O)O)NC(=O)[C@H](CO)NC(=O)[C@@H](NC(=O)[C@](C)(Cc1ccccc1F)NC(=O)[C@@H](NC(=O)CNC(=O)[C@H](CCC(=O)O)NC(=O)C(C)(C)NC(=O)[C@@H](N)Cc1ccc(O)cc1)[C@@H](C)O)[C@@H](C)O)[C@@H](C)CC)[C@@H](C)CC)C(=O)N[C@@H](CCC(=O)O)C(=O)NCC(=O)NCC(=O)N[C@@H](CCCCNC(=O)COCCOCCNC(=O)COCCOCCNC(=O)CC[C@H](NC(=O)CCCCCCCCCCCCC(=O)O)C(=O)O)C(=O)N[C@@H](CO)C(=O)N[C@@H](CO)C(=O)NCC(=O)N[C@@H](C)C(=O)N1CCC[C@H]1C(=O)N1CCC[C@H]1C(=O)N1CCC[C@H]1C(=O)N[C@@H](CO)C(N)=O` [Example 62], the maximum response (Emax) (usually the maximal effect, on the per cent scale that the assay sets) came to 94.3 ± 0.785% at hGIPR (setting [2]); 96.1 ± 2.64% at hGIPR (setting [3]); 85.8 ± 3.31% at hGLP-1R (HEK293, 0.1% bovine casein and 1.0% human serum albumin, percent of maximal response to GLP-1(7-36)NH2); 99.4 ± 5.83% at hGLP-1R (HEK293, percent of maximal response to GLP-1(7-36)NH2, 0.1% bovine casein, arithmetic mean). In addition, the EC50 (usually the concentration that produces a half-maximal response) at hGIPR (setting [4]) was 0.0211 nM; on hGCGR (setting [5]) it was above 9950 nM; at hGCGR (setting [4]), above 9950 nM. In addition, in assay [1], the Ki (usually the dissociation constant of the complex between target and ligand, obtained from inhibition or displacement) was above 4780 nM.
Consider `CC[C@H](C)[C@H](NC(=O)[C@H](CC(C)C)NC(=O)[C@](C)(Cc1ccc(O)cc1)NC(=O)[C@@H](CCC(=O)O)NC(=O)[C@@H](NC(=O)[C@H](Cc1ccccc1)NC(=O)[C@H](CCC(=O)O)NC(=O)C(C)(C)NC(=O)[C@H](CCC(N)=O)NC(=O)[C@H](C)NC(=O)[C@H](CCCCNC(=O)COCCOCCNC(=O)COCCOCCNC(=O)CC[C@H](NC(=O)CCCCCCCCCCCCC(=O)O)C(=O)O)NC(=O)[C@H](CCCN)NC(=O)[C@H](CC(=O)O)NC(=O)[C@H](CC(C)C)NC(=O)[C@](C)(CC(C)C)NC(=O)[C@H](CCCCNC(=O)COCCOCCNC(=O)COCCOCCNC(=O)CC[C@H](NC(=O)CCCCCCCCCCCCC(=O)O)C(=O)O)NC(=O)[C@H](CO)NC(=O)[C@H](Cc1ccncc1)NC(=O)[C@H](CC(=O)O)NC(=O)[C@H](CO)NC(=O)[C@@H](NC(=O)[C@](C)(Cc1ccccc1F)NC(=O)[C@@H](NC(=O)CNC(=O)[C@H](CCC(=O)O)NC(=O)C(C)(C)NC(=O)[C@@H](N)Cc1ccc(O)cc1)[C@@H](C)O)[C@@H](C)O)[C@@H](C)CC)C(=O)N[C@@H](CCC(=O)O)C(=O)NCC(=O)NCC(=O)N1CCC[C@H]1C(=O)N[C@@H](CO)C(=O)N[C@@H](CO)C(=O)NCC(=O)N[C@@H](C)C(=O)N1CCC[C@H]1C(=O)N1CCC[C@H]1C(=O)N1CCC[C@H]1C(=O)N[C@@H](CO)C(N)=O` [Example 28], for which the EC50 at hGIPR (setting [5]) is 2.08 nM; on hGCGR (setting [5]) it was above 9950 nM; at hGCGR (setting [4]) it was above 9950 nM; on hGLP-1R (cAMP, incubated at 37° C., 0.1% bovine casein (no human serum albumin), geometric mean, read-out: hGLP-1R EC50, nM (SEM, n)), 2.65 nM. Also, the Emax came to 93 ± 7.02% at hGIPR (setting [2]) and 95.4 ± 1.58% at hGIPR (setting [3]). For the same molecule, the Ki in assay [1] is above 966 nM.
